Results: US9994547B2, “Heteroarylamide inhibitors of TBK1” (Takeda Pharmaceutical Company Limited, priority 2014, dated 2018)

Target: Full length human TBK1 (Homo sapiens (Human), UniProt Q9UHD2)
Test: Inhibition of TBK1 Enzyme (Example A)
Type: biochemical
Conditions: -log(IC50), IC50 molar; 3 nM TBK1, 25 μM ATP, 60 min RT
Procedure, shortened: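 Full-length N-His human TBK1 from Sf9 baculovirus was tested with 11-point 2.5-fold dilutions (1% DMSO) in Hepes pH 7.4, MgCl2, EDTA, Brij, DTT. After 60 min RT and EDTA quench, microfluidic conversion was fitted and reported as pIC50.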

Chain of Full length human TBK1 (Q9UHD2 whole entry): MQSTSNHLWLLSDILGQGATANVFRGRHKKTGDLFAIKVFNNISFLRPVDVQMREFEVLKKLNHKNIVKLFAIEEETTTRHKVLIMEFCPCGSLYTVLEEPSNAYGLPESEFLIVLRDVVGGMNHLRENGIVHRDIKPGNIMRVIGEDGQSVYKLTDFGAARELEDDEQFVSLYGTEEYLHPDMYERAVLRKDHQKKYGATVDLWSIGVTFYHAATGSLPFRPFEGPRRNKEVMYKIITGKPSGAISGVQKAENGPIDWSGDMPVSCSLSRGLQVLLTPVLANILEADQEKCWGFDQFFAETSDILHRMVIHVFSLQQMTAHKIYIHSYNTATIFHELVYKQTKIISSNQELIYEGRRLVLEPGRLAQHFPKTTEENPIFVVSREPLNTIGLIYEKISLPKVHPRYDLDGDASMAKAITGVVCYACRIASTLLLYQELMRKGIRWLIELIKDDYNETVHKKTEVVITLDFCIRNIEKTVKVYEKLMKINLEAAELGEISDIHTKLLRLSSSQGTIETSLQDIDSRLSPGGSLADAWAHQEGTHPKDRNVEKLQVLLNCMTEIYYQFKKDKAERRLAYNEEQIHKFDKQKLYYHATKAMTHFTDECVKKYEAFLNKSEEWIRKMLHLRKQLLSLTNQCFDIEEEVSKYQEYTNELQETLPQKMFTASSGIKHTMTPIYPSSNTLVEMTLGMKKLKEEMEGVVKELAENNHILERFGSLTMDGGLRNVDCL

Row | Structure (SMILES) | TBK1 Inhibition (pIC50)
1 | N#Cc1ncc(-c2cnc(NC(=O)C3CC3)cn2)cc1NCC(=O)N1CCC(C#N)C1 (stereo not shown) [Example 102, N-(5-(6-cyano-5-((2-(3-cyanopyrrolidin-1-yl)-2-oxoethyl)amino)pyridin-3-yl)pyrazin-2-yl)cyclopropanecarboxamide] | 6.6
2 | CC1CN(C(=O)CNc2cc(-c3cnc(NC(=O)C4CC4)cn3)cnc2C#N)CCO1 (stereo not shown) [Example 103, N-(5-(6-cyano-5-((2-(2-methylmorpholino)-2-oxoethyl)amino)pyridin-3-yl)pyrazin-2-yl)cyclopropanecarboxamide] | 6.8
3 | N#Cc1ncc(-c2cnc(NC(=O)C3CC3)cn2)cc1NCC(=O)N1CC2(COC2)C1 [Example 104, N-(5-(6-cyano-5-((2-oxo-2-(2-oxa-6-azaspiro[3.3]heptan-6-yl)ethyl)amino)pyridin-3-yl)pyrazin-2-yl)cyclopropanecarboxamide] | 5.4
4 | CN1CC(N(C)C(=O)CNc2cc(-c3cnc(NC(=O)C4CC4)cn3)cnc2C#N)C1 [Example 105, N-(5-(6-cyano-5-((2-(methyl(1-methylazetidin-3-yl)amino)-2-oxoethyl)amino)pyridin-3-yl)pyrazin-2-yl)cyclopropanecarboxamide] | 5.6
5 | C[C@H](Nc1cc(-c2cnc(NC(=O)[C@H]3C[C@@H]3C)cn2)cnc1C#N)C(=O)N(C)C [Example 106, (1S,2S)-N-(5-(6-cyano-5-(((S)-1-(dimethylamino)-1-oxopropan-2-yl)amino)pyridin-3-yl)pyrazin-2-yl)-2-methylcyclopropanecarboxamide] | 7.4
6 | C[C@H](Nc1cc(-c2cnc(NC(=O)[C@@H]3C[C@H]3C)cn2)cnc1C#N)C(=O)N(C)C [Example 107, (1R,2R)-N-(5-(6-cyano-5-(((S)-1-(dimethylamino)-1-oxopropan-2-yl)amino)pyridin-3-yl)pyrazin-2-yl)-2-methylcyclopropanecarboxamide] | 7.8
7 | C[C@H](Nc1cc(-c2cnc(NC(=O)[C@@H]3C[C@@H]3C)cn2)cnc1C#N)C(=O)N(C)C [Example 108, (1R,2S)-N-(5-(6-cyano-5-(((S)-1-(dimethylamino)-1-oxopropan-2-yl)amino)pyridin-3-yl)pyrazin-2-yl)-2-methylcyclopropanecarboxamide] | 7.7
8 | C[C@H](Nc1cc(-c2cnc(NC(=O)[C@H]3C[C@H]3C)cn2)cnc1C#N)C(=O)N(C)C [Example 109, (1S,2R)-N-(5-(6-cyano-5-(((S)-1-(dimethylamino)-1-oxopropan-2-yl)amino)pyridin-3-yl)pyrazin-2-yl)-2-methylcyclopropanecarboxamide] | 7.2
9 | CC(O)CN(CC(F)(F)F)C(=O)CNc1cc(-c2cnc(NC(=O)C3CC3)cn2)cnc1C#N (stereo not shown) [Example 110, N-(5-(6-cyano-5-((2-((2-hydroxypropyl)(2,2,2-trifluoroethyl)amino)-2-oxoethyl)amino)pyridin-3-yl)pyrazin-2-yl)cyclopropanecarboxamide] | 7.5
10 | CC(C)(O)CN(CC(F)(F)F)C(=O)CNc1cc(-c2cnc(NC(=O)C3CC3)cn2)cnc1C#N [Example 111, N-(5-(6-cyano-5-((2-((2-hydroxy-2-methylpropyl)(2,2,2-trifluoroethyl)amino)-2-oxoethyl)amino)pyridin-3-yl)pyrazin-2-yl)cyclopropanecarboxamide] | 6.6
11 | CCN(C)C(=O)[C@H](C)Nc1cc(-c2cnc(NC(=O)C3CC3)cn2)cnc1C#N [Example 112, (S)-N-(5-(6-cyano-5-((1-(ethyl(methyl)amino)-1-oxopropan-2-yl)amino)pyridin-3-yl)pyrazin-2-yl)cyclopropanecarboxamide] | 7.7
12 | N#Cc1ncc(-c2cnc(NC(=O)C3CC3)cn2)cc1NCC(=O)N1C[C@H](CO)C[C@H]1C(F)(F)F [Example 113, N-(5-(6-cyano-5-((2-((2S,4R)-4-(hydroxymethyl)-2-(trifluoromethyl)pyrrolidin-1-yl)-2-oxoethyl)amino)pyridin-3-yl)pyrazin-2-yl)cyclopropanecarboxamide] | 7.6
13 | C[C@H](Nc1cc(-c2cnc(NC(=O)C3CC3)cn2)cnc1C#N)C(=O)NCC(F)F [Example 114, (S)-N-(5-(6-cyano-5-((1-((2,2-difluoroethyl)amino)-1-oxopropan-2-yl)amino)pyridin-3-yl)pyrazin-2-yl)cyclopropanecarboxamide] | 7.7
14 | CN(C)C(=O)C(CCO)Nc1cc(-c2cnc(NC(=O)C3CC3)cn2)cnc1C#N (stereo not shown) [Example 115, N-(5-(6-cyano-5-((1-(dimethylamino)-4-hydroxy-1-oxobutan-2-yl)amino)pyridin-3-yl)pyrazin-2-yl)cyclopropanecarboxamide] | 6.9
15 | C[C@H](Nc1cc(-c2cnc(NC(=O)C3CC3)cn2)cnc1C#N)C(=O)NCC(F)(F)F [Example 116, (S)-N-(5-(6-cyano-5-((1-oxo-1-((2,2,2-trifluoroethyl)amino)propan-2-yl)amino)pyridin-3-yl)pyrazin-2-yl)cyclopropanecarboxamide] | 7.3
16 | C[C@H](Nc1cc(-c2cnc(NC(=O)C3CC3)cn2)cnc1C#N)C(=O)NCC(C)(F)F [Example 117, (S)-N-(5-(6-cyano-5-((1-((2,2-difluoropropyl)amino)-1-oxopropan-2-yl)amino)pyridin-3-yl)pyrazin-2-yl)cyclopropanecarboxamide] | 7.0

Row | Structure (SMILES) | TBK1 Inhibition (pIC50)
17 | C[C@H](Nc1cc(-c2cnc(NC(=O)C3CC3)cn2)cnc1C#N)C(=O)NC1CC1(F)F (stereo partly drawn) [Example 118, N-(5-(6-cyano-5-(((2S)-1-((2,2-difluorocyclopropyl)amino)-1-oxopropan-2-yl)amino)pyridin-3-yl)pyrazin-2-yl)cyclopropanecarboxamide] | 6.8
18 | CC(NC(=O)[C@H](C)Nc1cc(-c2cnc(NC(=O)C3CC3)cn2)cnc1C#N)C(F)F (stereo partly drawn) [Example 119, N-(5-(6-cyano-5-(((2S)-1-((1,1-difluoropropan-2-yl)amino)-1-oxopropan-2-yl)amino)pyridin-3-yl)pyrazin-2-yl)cyclopropanecarboxamide] | 8.1
19 | CC[C@H](Nc1cc(-c2cnc(NC(=O)C3CC3)cn2)cnc1C#N)C(=O)NCC(F)F [Example 120, (S)-N-(5-(6-cyano-5-((1-((2,2-difluoroethyl)amino)-1-oxobutan-2-yl)amino)pyridin-3-yl)pyrazin-2-yl)cyclopropanecarboxamide] | 7.2
20 | N#Cc1ncc(-c2cnc(NC(=O)C3CC3)cn2)cc1NCC(N)=O [Example 121, N-(5-(5-((2-amino-2-oxoethyl)amino)-6-cyanopyridin-3-yl)pyrazin-2-yl)cyclopropanecarboxamide] | 5.6
21 | CN(C)C(=O)CNc1cc(-c2cnc(NC(=O)C3CC3)cn2)cnc1C#N [Example 122, N-(5-(6-cyano-5-((2-(dimethylamino)-2-oxoethyl)amino)pyridin-3-yl)pyrazin-2-yl)cyclopropanecarboxamide] | 7.0
22 | CN(C)C(=O)CNc1cc(-c2cnc(NC(=O)C3CC3)cn2)ccc1C#N [Example 123, N-(5-(4-cyano-3-((2-(dimethylamino)-2-oxoethyl)amino)phenyl)pyrazin-2-yl)cyclopropanecarboxamide] | 7.2
23 | CCNC(=O)CNc1cc(-c2cnc(NC(=O)C3CC3)cn2)ccc1C#N [Example 124, N-(5-(4-cyano-3-((2-(ethylamino)-2-oxoethyl)amino)phenyl)pyrazin-2-yl)cyclopropanecarboxamide] | 6.5
24 | N#Cc1ccc(-c2cnc(NC(=O)C3CC3)cn2)cc1NCC(=O)N1CCCC1 [Example 125, N-(5-(4-cyano-3-((2-oxo-2-(pyrrolidin-1-yl)ethyl)amino)phenyl)pyrazin-2-yl)cyclopropanecarboxamide] | 7.3
25 | CN(CC(F)(F)F)C(=O)CNc1cc(-c2cnc(NC(=O)C3CC3)cn2)ccc1C#N [Example 126, N-(5-(4-cyano-3-((2-(methyl(2,2,2-trifluoroethyl)amino)-2-oxoethyl)amino)phenyl)pyrazin-2-yl)cyclopropanecarboxamide] | 7.6
26 | CC[C@H](Nc1cc(-c2cnc(NC(=O)C3CC3)cn2)ncc1C#N)C(=O)N(C)C [Example 127, (S)-N-(5-(5-cyano-4-((1-(dimethylamino)-1-oxobutan-2-yl)amino)pyridin-2-yl)pyrazin-2-yl)cyclopropanecarboxamide] | 7.0
27 | CN(C)C(=O)C(CO)Nc1cc(-c2cnc(NC(=O)C3CC3)cn2)cnc1C#N [Example 128, (S)-N-(5-(6-cyano-5-((1-(dimethylamino)-3-hydroxy-1-oxopropan-2-yl)amino)pyridin-3-yl)pyrazin-2-yl)cyclopropanecarboxamide] | 7.1
28 | C[C@H](Nc1cc(-c2cnc(NC(=O)C3CC3)cn2)cnc1C#N)C(=O)N(C)C [Example 129, (S)-N-(5-(6-cyano-5-((1-(dimethylamino)-1-oxopropan-2-yl)amino)pyridin-3-yl)pyrazin-2-yl)cyclopropanecarboxamide] | 7.6
29 | COCC[C@H](Nc1cc(-c2cnc(NC(=O)C3CC3)cn2)cnc1C#N)C(=O)N(C)C [Example 131, (S)-N-(5-(6-cyano-5-((1-(dimethylamino)-4-methoxy-1-oxobutan-2-yl)amino)pyridin-3-yl)pyrazin-2-yl)cyclopropanecarboxamide] | 7.1
30 | CC1(O)CCN(C(=O)CNc2cc(-c3cnc(NC(=O)C4CC4)cn3)ccc2C#N)C1 (stereo not shown) [Example 132, N-(5-(4-cyano-3-((2-(3-hydroxy-3-methylpyrrolidin-1-yl)-2-oxoethyl)amino)phenyl)pyrazin-2-yl)cyclopropanecarboxamide] | 6.2
31 | CC(CO)N(C)C(=O)CNc1cc(-c2cnc(NC(=O)C3CC3)cn2)ccc1C#N (stereo not shown) [Example 133, N-(5-(4-cyano-3-((2-((1-hydroxypropan-2-yl)(methyl)amino)-2-oxoethyl)amino)phenyl)pyrazin-2-yl)cyclopropanecarboxamide] | 7.3
